Bounds are passed on as bounds.

T1 sequence (Q9NZQ7 19-238): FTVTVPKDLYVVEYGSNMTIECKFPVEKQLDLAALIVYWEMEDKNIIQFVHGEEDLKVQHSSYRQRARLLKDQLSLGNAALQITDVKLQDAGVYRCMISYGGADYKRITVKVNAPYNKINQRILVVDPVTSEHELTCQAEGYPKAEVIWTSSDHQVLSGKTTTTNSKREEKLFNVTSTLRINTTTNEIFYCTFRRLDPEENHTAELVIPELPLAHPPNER

This test has as its target T1, PD-1/PD-L1 (Homo sapiens, UniProt Q9NZQ7).
T1 construct: Recombinant human PD-L1 protein (19-238) with a His-tag at the C-terminus; purchased AcroBiosystems PD1-H5229 (PD-L1); PD1-H5257 (PD-1)
The experiment in a line: PD-1/PD-L1 homogenous time-resolved fluorescence (HTRF) binding assay. The settings on record: recombinant human PD-L1 (19-238) His-tag / human PD-1 (25-167) Fc tag, class symbols. Summed up:
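Inhibitors were preincubated 40 min at 25°C with 10 nM His-tagged human PD-L1 (19-238) and 3 nM Fc-tagged human PD-1 (25-167) in PBS pH 7.4 containing Tween-20, BSA and 1% DMSO. After 60 min with europium anti-human IgG and anti-His-APC, 665/620 nm signal ratio gave IC50 via percent-control fit.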
A general note: Time-resolved FRET reads energy transfer from a long-lived donor to a nearby acceptor.
A word on the IC50: it is the concentration that inhibits the measured activity by half. On to `Cc1c(Nc2nccc3cc(CN4CCCCC4C(=O)O)cnc23)cccc1-c1cccc(Nc2nccc3cc(CN4CCCCC4C(=O)O)cnc23)c1C` (centres unmarked) [Example 155, 1,1′-((((2,2′-dimethyl-[1,1′-biphenyl]-3,3′-diyl)bis(azanediyl))bis(1,7-naphthyridine-8,3-diyl))bis(methylene))bis(piperidine-2-carboxylic acid)], for which the half-inhibitory concentration (IC50) is under 25 nM.
On to `Cc1c(Nc2nccc3cc(CNCCO)cnc23)cccc1-c1cccc(Nc2nccc3cc(CNCC(F)(F)F)cnc23)c1C` [Example 156, 2-(((8-((2,2′-dimethyl-3′-((3-(((2,2,2-trifluoroethyl)amino)methyl)-1,7-naphthyridin-8-yl)amino)-[1,1′-biphenyl]-3-yl)amino)-1,7-naphthyridin-3-yl)methyl)amino)ethan-1-ol], for which the half-inhibitory concentration (IC50) was under 25 nM.
In the case of `Cc1c(Nc2nccc3cc(CNC4([C@H](C)O)CC4)cnc23)cccc1-c1cccc(Nc2nccc3cc(CNC4([C@H](C)O)CC4)cnc23)c1C` [Example 157, (1S,1'S)-1,1′-((((((2,2′-dimethyl-[1,1′-biphenyl]-3,3′-diyl)bis(azanediyl))bis(1,7-naphthyridine-8,3-diyl))bis(methylene))bis(azanediyl))bis(cyclopropane-1,1-diyl))bis(ethan-1-ol)] it was under 25 nM; in that of `COC(=O)NCCNCc1cnc2c(Nc3cccc(-c4cccc(Nc5nccc6cc(CNCCNC(=O)OC)cnc56)c4C)c3C)nccc2c1` [Example 158, dimethyl ((((((2,2′-dimethyl-[1,1′-biphenyl]-3,3′-diyl)bis(azanediyl))bis(1,7-naphthyridine-8,3-diyl))bis(methylene))bis(azanediyl))bis(ethane-2,1-diyl))dicarbamate], under 25 nM; in that of `COC(=O)NCCNCc1cnc2c(Nc3cccc(-c4cccc5c4CCN5C(=O)C4=NC5CCN(CC(=O)O)CC5S4)c3C)nccc2c1` (centres unmarked) [Example 159, 2-(2-(4-(3-((3-(((2-((methoxycarbonyl)amino)ethyl)amino)methyl)-1,7-naphthyridin-8-yl)amino)-2-methylphenyl)indoline-1-carbonyl)-3a,6,7,7a-tetrahydrothiazolo[5,4-c]pyridin-5(4H)-yl)acetic acid], under 25 nM.
For the compound `Cc1c(Nc2nccc3cc(CNCC(=O)O)cnc23)cccc1-c1cccc2c1CCN2C(=O)C1=NC2CCN(CC(=O)O)CC2S1` (centres unmarked) [Example 160, ((8-((3-(1-(5-(carboxymethyl)-3a,4,5,6,7,7a-hexahydrothiazolo[5,4-c]pyridine-2-carbonyl)indolin-4-yl)-2-methylphenyl)amino)-1,7-naphthyridin-3-yl)methyl)glycine], the half-maximal inhibitory concentration (IC50) is under 25 nM.
For the compound `Cc1c(Nc2nccc3cc(CNCC(=O)O)cnc23)cccc1-c1cccc2c1CCN2C(=O)C1=NC2CCN(CCC(=O)O)CC2S1` (centres unmarked) [Example 161, 3-(2-(4-(3-((3-(((carboxymethyl)amino)methyl)-1,7-naphthyridin-8-yl)amino)-2-methylphenyl)indoline-1-carbonyl)-3a,6,7,7a-tetrahydrothiazolo[5,4-c]pyridin-5(4H)-yl)propanoic acid], the IC50 was under 25 nM.
In the case of `Cc1c(Nc2nccc3cc(CNCCO)cnc23)cccc1-c1cccc2c1CCN2C(=O)C1=NC2CCN(CCC(=O)O)CC2S1` (centres unmarked) [Example 162, 3-(2-(4-(3-((3-(((2-hydroxyethyl)amino)methyl)-1,7-naphthyridin-8-yl)amino)-2-methylphenyl)indoline-1-carbonyl)-3a,6,7,7a-tetrahydrothiazolo[5,4-c]pyridin-5(4H)-yl)propanoic acid] it was under 25 nM; in that of `Cc1c(Nc2nccc3cc(CN[C@@H](C)C(=O)O)cnc23)cccc1-c1cccc2c1CCN2C(=O)C1=NC2CCN(CC(=O)O)CC2S1` (some centres unmarked) [Example 163, ((8-((3-(1-(5-(carboxymethyl)-3a,4,5,6,7,7a-hexahydrothiazolo[5,4-c]pyridine-2-carbonyl)indolin-4-yl)-2-methylphenyl)amino)-1,7-naphthyridin-3-yl)methyl)alanine], under 25 nM.
Turning to `Cc1c(Nc2nccc3cc(CNCC(N)=O)cnc23)cccc1-c1cccc2c1CCN2C(=O)C1=NC2CCN(CC(=O)O)CC2S1` (centres unmarked) [Example 164, 2-(2-(4-(3-((3-(((2-amino-2-oxoethyl)amino)methyl)-1,7-naphthyridin-8-yl)amino)-2-methylphenyl)indoline-1-carbonyl)-3a,6,7,7a-tetrahydrothiazolo[5,4-c]pyridin-5(4H)-yl)acetic acid], the concentration for half-maximal inhibition (IC50) was under 25 nM.
Take `Cc1c(Nc2nccc3cc(CNCC(=O)N(C)C)cnc23)cccc1-c1cccc2c1CCN2C(=O)C1=NC2CCN(CC(=O)O)CC2S1` (centres unmarked) [Example 165, 2-(2-(4-(3-((3-(((2-(dimethylamino)-2-oxoethyl)amino)methyl)-1,7-naphthyridin-8-yl)amino)-2-methylphenyl)indoline-1-carbonyl)-3a,6,7,7a-tetrahydrothiazolo[5,4-c]pyridin-5(4H)-yl)acetic acid]: the IC50 was under 25 nM.
For `Cc1c(Nc2nccc3cc(CNCC(=O)N(C)CCO)cnc23)cccc1-c1cccc2c1CCN2C(=O)C1=NC2CCN(CC(=O)O)CC2S1` (centres unmarked) [Example 166, 2-(2-(4-(3-((3-(((2-((2-hydroxyethyl)(methyl)amino)-2-oxoethyl)amino)methyl)-1,7-naphthyridin-8-yl)amino)-2-methylphenyl)indoline-1-carbonyl)-3a,6,7,7a-tetrahydrothiazolo[5,4-c]pyridin-5(4H)-yl)acetic acid], the IC50 was under 25 nM.
As for `Cc1c(NC(=O)c2ccc3c(n2)CCNC3)cccc1-c1cccc(NC(=O)c2ccc3c(n2)CCNC3)c1C` [Example 167, N,N′-(2,2′-dimethyl-[1,1′-biphenyl]-3,3′-diyl)bis(5,6,7,8-tetrahydro-1,6-naphthyridine-2-carboxamide)], the IC50 is under 25 nM.
In the case of `COC(=O)N[C@H](C(=O)N1CCc2nc(C(=O)N3CCc4c(-c5cccc6c5CCN6C(=O)c5ccc6c(n5)CCN(C(=O)[C@@H](NC(=O)OC)C(C)C)C6)cccc43)ccc2C1)C(C)C` [Example 168, dimethyl ((2S,2'S)-(([4,4′-biindoline]-1,1′-dicarbonyl)bis(7,8-dihydro-1,6-naphthyridine-2,6(5H)-diyl))bis(3-methyl-1-oxobutane-1,2-diyl))dicarbamate] it was under 25 nM; in that of `COC(=O)N[C@H](C(=O)N1CCc2nc(C(=O)Nc3cccc(-c4cccc(NC(=O)c5ccc6c(n5)CCN(C(=O)[C@@H](NC(=O)OC)C(C)C)C6)c4C)c3C)ccc2C1)C(C)C` [Example 169, dimethyl ((2S,2'S)-((((2,2′-dimethyl-[1,1′-biphenyl]-3,3′-diyl)bis(azanediyl))bis(carbonyl))bis(7,8-dihydro-1,6-naphthyridine-2,6(5H)-diyl))bis(3-methyl-1-oxobutane-1,2-diyl))dicarbamate], under 25 nM.
Turning to `CCOC(=O)CN1CCc2nc(C(=O)Nc3cccc(-c4cccc(NC(=O)c5ccc6c(n5)CCNC6)c4C)c3C)ccc2C1` [Example 170, ethyl 2-(2-((2,2′-dimethyl-3′-(5,6,7,8-tetrahydro-1,6-naphthyridine-2-carboxamido)-[1,1′-biphenyl]-3-yl)carbamoyl)-7,8-dihydro-1,6-naphthyridin-6(5H)-yl)acetate], the IC50 was under 25 nM.
For `Cc1c(NC(=O)c2ccc3c(n2)CCN(CC(=O)OC(C)(C)C)C3)cccc1-c1cccc(NC(=O)c2ccc3c(n2)CCN(CC(=O)OC(C)(C)C)C3)c1C` [Example 172, di-tert-butyl 2,2′-((((2,2′-dimethyl-[1,1′-biphenyl]-3,3′-diyl)bis(azanediyl))bis(carbonyl))bis(7,8-dihydro-1,6-naphthyridine-2,6(5H)-diyl))diacetate], the IC50 lay within 100 to 200 nM.
`Cc1c(NC(=O)c2ccc3c(n2)CCN(CC(=O)O)C3)cccc1-c1cccc(NC(=O)c2ccc3c(n2)CCN(CC(=O)O)C3)c1C` [Example 173, 2,2′-((((2,2′-dimethyl-[1,1′-biphenyl]-3,3′-diyl)bis(azanediyl))bis(carbonyl))bis(7,8-dihydro-1,6-naphthyridine-2,6(5H)-diyl))diacetic acid]: the IC50 is under 25 nM.
`Cc1c(NC(=O)c2ccc3c(n2)CCN(CCO)C3)cccc1-c1cccc(NC(=O)c2ccc3c(n2)CCN(CCO)C3)c1C` [Example 174, N,N′-(2,2′-dimethyl-[1,1′-biphenyl]-3,3′-diyl)bis(6-(2-hydroxyethyl)-5,6,7,8-tetrahydro-1,6-naphthyridine-2-carboxamide)]: the half-inhibitory concentration (IC50) was under 25 nM.
For the compound `Cc1c(NC(=O)c2ccc3c(n2)CCN(C)C3)cccc1-c1cccc(NC(=O)c2ccc3c(n2)CCN(C)C3)c1C` [Example 175, N,N′-(2,2′-dimethyl-[1,1′-biphenyl]-3,3′-diyl)bis(6-methyl-5,6,7,8-tetrahydro-1,6-naphthyridine-2-carboxamide)], the half-maximal inhibitory concentration (IC50) is under 25 nM.
With `Cc1c(NC(=O)c2ccc3c(n2)CCN(CCN2CCOCC2)C3)cccc1-c1cccc(NC(=O)c2ccc3c(n2)CCN(CCN2CCOCC2)C3)c1C` [Example 176, N,N′-(2,2′-dimethyl-[1,1′-biphenyl]-3,3′-diyl)bis(6-(2-morpholinoethyl)-5,6,7,8-tetrahydro-1,6-naphthyridine-2-carboxamide)], the concentration for half-maximal inhibition (IC50) was in the range of 25 to 100 nM.
The same measure for `CCOC(=O)CNC(C)c1cnc(C(=O)Nc2cccc(-c3cccc(NC(=O)c4cnc(C(C)NCC(=O)OCC)cn4)c3C)c2C)cn1` (centres unmarked) [Example 179, diethyl 2,2′-((((((2,2′-dimethyl-[1,1′-biphenyl]-3,3′-diyl)bis(azanediyl))bis(carbonyl))bis(pyrazine-5,2-diyl))bis(ethane-1,1-diyl))bis(azanediyl))diacetate]: 25 to 100 nM.
The same measure for `CNC(C)c1cnc(C(=O)Nc2cccc(-c3cccc(NC(=O)c4cnc(C(C)NC)cn4)c3C)c2C)cn1` (centres unmarked) [Example 180, N,N′-(2,2′-dimethyl-[1,1′-biphenyl]-3,3′-diyl)bis(5-(1-(methylamino)ethyl)pyrazine-2-carboxamide)]: under 25 nM.
